Assay results from PubChem BioAssay (NCI).
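All cell lines were grown in 96-well plates and treated with compound for 48 hours. TGI denotes the concentration required for complete inhibition of growth.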

Tests used:
Assay in all cases: DTP human tumour cell line panel, 48 h
UACC-257 melanoma = test system: UACC-257 melanoma
SF-268 CNS = test system: SF-268 CNS
LOX IMVI melanoma = test system: LOX IMVI melanoma
SK-MEL-2 melanoma = test system: SK-MEL-2 melanoma
U251 CNS = test system: U251 CNS
HCT-15 colon = test system: HCT-15 colon
HCT-116 colon = test system: HCT-116 colon
CAKI-1 renal = test system: CAKI-1 renal
SK-MEL-5 melanoma = test system: SK-MEL-5 melanoma
A549 NSCLC = test system: A549 NSCLC
OVCAR-5 ovarian = test system: OVCAR-5 ovarian
ACHN renal = test system: ACHN renal
IGROV1 ovarian = test system: IGROV1 ovarian
SW-620 colon = test system: SW-620 colon
OVCAR-3 ovarian = test system: OVCAR-3 ovarian
CCRF-CEM leukemia = test system: CCRF-CEM leukemia
SF-539 CNS = test system: SF-539 CNS
NCI-H226 lung = test system: NCI-H226 lung
NCI-H460 lung = test system: NCI-H460 lung
MDA-MB-435 = test system: MDA-MB-435
OVCAR-4 ovarian = test system: OVCAR-4 ovarian
T-47D breast = test system: T-47D breast
TK-10 renal = test system: TK-10 renal
PC-3 prostate = test system: PC-3 prostate
SK-MEL-28 melanoma = test system: SK-MEL-28 melanoma
SN12C renal = test system: SN12C renal
HCC-2998 colon = test system: HCC-2998 colon
NCI-H522 lung = test system: NCI-H522 lung
SF-295 CNS = test system: SF-295 CNS
RXF 393 renal = test system: RXF 393 renal
SNB-19 CNS = test system: SNB-19 CNS
NCI-H23 lung = test system: NCI-H23 lung
COLO 205 colon = test system: COLO 205 colon
MCF7 breast = test system: MCF7 breast
SNB-75 CNS = test system: SNB-75 CNS
OVCAR-8 ovarian = test system: OVCAR-8 ovarian
UO-31 renal = test system: UO-31 renal
BT-549 breast = test system: BT-549 breast
KM12 colon = test system: KM12 colon
M14 melanoma = test system: M14 melanoma
A498 renal = test system: A498 renal
MALME-3M melanoma = test system: MALME-3M melanoma
HOP-62 NSCLC = test system: HOP-62 NSCLC
SK-OV-3 ovarian = test system: SK-OV-3 ovarian
MDA-N = test system: MDA-N
MDA-MB-231 breast = test system: MDA-MB-231 breast
786-0 renal = test system: 786-0 renal
RPMI-8226 leukemia = test system: RPMI-8226 leukemia
EKVX NSCLC = test system: EKVX NSCLC
NCI/ADR-RES ovarian = test system: NCI/ADR-RES ovarian
DU-145 prostate = test system: DU-145 prostate
K-562 leukemia = test system: K-562 leukemia
UACC-62 melanoma = test system: UACC-62 melanoma
HL-60(TB) leukemia = test system: HL-60(TB) leukemia
HS 578T breast = test system: HS 578T breast
HT29 colon = test system: HT29 colon
MOLT-4 leukemia = test system: MOLT-4 leukemia
HOP-92 NSCLC = test system: HOP-92 NSCLC

Measured: TGI

N#Cc1c(-c2ccccc2)/c(=C\Nc2ccc(F)cc2)c(=O)n2c1nc1ccccc12
34.3 µM: NCI-H522 lung
48.2 µM: OVCAR-3 ovarian
38.5 µM: RPMI-8226 leukemia
68.3 µM: 786-0 renal
82.9 µM: SN12C renal
68.4 µM: SF-539 CNS
64.1 µM: NCI-H226 lung
45.6 µM: UO-31 renal
87.3 µM: IGROV1 ovarian
57.9 µM: MDA-N
10.8 µM: HOP-62 NSCLC
40.4 µM: M14 melanoma
52.3 µM: RXF 393 renal
39.9 µM: CAKI-1 renal
64.9 µM: NCI/ADR-RES ovarian
52.7 µM: MALME-3M melanoma
not listed: DU-145 prostate | K-562 leukemia | UACC-62 melanoma | HL-60(TB) leukemia | HS 578T breast | HT29 colon | MOLT-4 leukemia | HOP-92 NSCLC
> 100 µM: all other assays above

CCOC(=O)c1cn2c(nc1=O)N[C@H]1CCCC[C@@H]12
not listed: RXF 393 renal | HOP-62 NSCLC
> 100 µM: all other assays above
